Like-named read-outs stand apart in the source and are kept apart here.
Assays:
tyrosinase [1] = target: T1, tyrosinase (Agaricus bisporus, UniProt C7FF04); test: Tyrosinase inhibitory activity using L-DOPA as substrate; type: biochemical, mushroom; conditions: read-out: Inhibition Rate at 64 μM (%)
Experimental: Compounds c1~c29 were tested for their tyrosinase inhibitory activities according to previous reports. Each compound was dissolved in DMSO and diluted to different concentrations. Tyrosinase and L-DOPA were dissolved in PBS solution (50 mM, pH 6.8). To 140 μL of tyrosinase (final concentration: 66.7 U/mL) solution, 10 μL of compound was added and incubated for 5 min at 25 °C, followed by the addition of 50 µL of L-DOPA (final concentration: 2 mM). Then, absorbance of the mixture was read at 475 nm. The inhibitory activity of each compound was calculated using DMSO as a blank control.
Target sequence in this assay (C7FF04 2-392): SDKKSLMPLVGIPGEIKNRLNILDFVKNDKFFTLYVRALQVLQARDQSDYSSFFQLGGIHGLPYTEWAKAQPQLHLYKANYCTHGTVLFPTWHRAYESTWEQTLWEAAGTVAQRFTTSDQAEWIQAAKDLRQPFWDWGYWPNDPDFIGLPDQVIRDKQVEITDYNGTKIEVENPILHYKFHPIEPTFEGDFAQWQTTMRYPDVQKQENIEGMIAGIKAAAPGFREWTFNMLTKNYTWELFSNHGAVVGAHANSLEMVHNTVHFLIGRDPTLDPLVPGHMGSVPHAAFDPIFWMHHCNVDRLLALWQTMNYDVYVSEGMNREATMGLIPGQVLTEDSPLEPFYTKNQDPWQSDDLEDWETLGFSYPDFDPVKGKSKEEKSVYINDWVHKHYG

tyrosinase [2] = target: T1, tyrosinase; test: Three-dimensional fluorescence spectra of tyrosinase–compound mixture; design: species or system mushroom; conditions: 3D fluorescence
Experimental: The 3D fluorescence spectra of tyrosinase-compound c27 mixture was measured according to previous reports. To 3 mL of tyrosinase solution (final concentration: 168 μM) in PBS, 10 µL of compound c27 (2 mM) was added and incubated for 5 min. Then, the 3D fluorescence spectra analyses were conducted in room temperature. The excitation and emission wavelengths were 200–600 nm and the slit width was 2.5 nm.
Target sequence in this assay (C7FF04 2-392): as above

tyrosinase [3] = target: T1, tyrosinase; test: Circular dichroism spectra, secondary structure contents of tyrosinase; design: purchased Sigma-Aldrich; species or system mushroom
Experimental: The CD spectra of tyrosinase-compound c27 mixture were measured according to previous reports. To 190 µL of tyrosinase solution (final concentration: 64.65 μM) in PBS, 10 µL of compound c27 (1.28, 2.56, and 3.84 mM) was added and incubated for 5 min. Then, the CD spectra were measured at 195~250 nm at room temperature.
Target sequence in this assay (C7FF04 1-392): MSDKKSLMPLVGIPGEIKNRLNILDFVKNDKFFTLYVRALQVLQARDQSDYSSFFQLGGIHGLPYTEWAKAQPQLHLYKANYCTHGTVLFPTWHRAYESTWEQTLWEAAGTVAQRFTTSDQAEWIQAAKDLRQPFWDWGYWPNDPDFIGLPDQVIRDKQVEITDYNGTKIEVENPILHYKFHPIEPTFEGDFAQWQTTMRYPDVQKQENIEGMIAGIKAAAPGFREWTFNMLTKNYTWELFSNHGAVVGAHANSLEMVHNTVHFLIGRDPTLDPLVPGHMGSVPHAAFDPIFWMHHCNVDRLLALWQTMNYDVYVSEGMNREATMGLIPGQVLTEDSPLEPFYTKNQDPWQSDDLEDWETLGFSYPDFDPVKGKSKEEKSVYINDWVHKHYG

tyrosinase [4] = target: T1, tyrosinase; test: Fluorescence quenching of tyrosinase (Stern–Volmer); type: binding, mushroom; design: purchased Sigma-Aldrich
Experimental: An amount of 1 μL of compound c27 solution was titrated into 2 mL of tyrosinase and incubated for 5 min. […] The quenching mechanism and parameters were investigated by the Stern–Volmer equation.
Target sequence in this assay (C7FF04 1-392 limits assumed): as the sequence (C7FF04 1-392) above

tyrosinase [5] = target: T1, tyrosinase; test: Inhibition kinetic study (enzyme and substrate kinetics, Lineweaver–Burk); type: biochemical, mushroom; conditions: c27 0~4 μM
Experimental: The kinetics studies were carried out using the same experimental method as described above. For enzyme kinetics, the absorbance of the mixture containing different concentrations of tyrosinase (final concentration: 66.7 U/mL) and compound c27 (0, 2, 3, and 4 μM) was recorded at 475 nm, respectively. For substrate kinetics, the absorbance of the mixture containing different concentrations of L-DOPA (final concentration: 2, 4, 6 and 8 mM) and compound c27 (0, 2, 3 and 4 μM) was recorded at 475 nm, respectively.
Target sequence in this assay (C7FF04 2-392): as the sequence (C7FF04 2-392) above

[6] = compound concentration 64 μM, L-DOPA substrate

Structure (SMILES): C=CCc1ccc(OC(=O)/C=C/c2cccc(F)c2)c(OC)c1 [c9, 4-allyl-2-methoxyphenyl (E)-3-(3-fluorophenyl)acrylate]
- inhibition at 64 µM (tyrosinase [1]; [6]): 17 ± 3%

Structure (SMILES): C=CCc1ccc(OC(=O)/C=C/c2ccc(C(F)(F)F)cc2)c(OC)c1 [c24, 4-allyl-2-methoxyphenyl (E)-3-(4-(trifluoromethyl)phenyl)acrylate]
- inhibition at 64 µM (tyrosinase [1]; [6]): 2 ± 0.1%

Structure (SMILES): C=CCc1ccc(OC(=O)/C=C/c2ccc(OC)cc2)c(OC)c1 [c21, 4-allyl-2-methoxyphenyl (E)-3-(4-methoxyphenyl)acrylate]
- inhibition at 64 µM (tyrosinase [1]; [6]): 7 ± 0.9%

Structure (SMILES): C=CCc1ccc(OC(=O)/C=C/c2ccccc2OC)c(OC)c1 [c19, 4-allyl-2-methoxyphenyl (E)-3-(2-methoxyphenyl)acrylate]
- inhibition at 64 µM (tyrosinase [1]; [6]): 3 ± 0.2%

Structure (SMILES): C=CCc1ccc(OC(=O)/C=C/c2ccc([N+](=O)[O-])cc2)c(OC)c1 [c18, 4-allyl-2-methoxyphenyl (E)-3-(4-nitrophenyl)acrylate]
- inhibition at 64 µM (tyrosinase [1]; [6]): 14 ± 1%

Structure (SMILES): C=CCc1ccc(OC(=O)C=Cc2ccccc2)c(OC)c1 [c1, 4-allyl-2-methoxyphenyl cinnamate]
- inhibition at 64 µM (tyrosinase [1]; [6]): 12 ± 1%

Structure (SMILES): C=CCc1ccc(OC(=O)/C=C/c2cccc([N+](=O)[O-])c2)c(OC)c1 [c17, 4-allyl-2-methoxyphenyl (E)-3-(3-nitrophenyl)acrylate]
- inhibition at 64 µM (tyrosinase [1]; [6]): 9 ± 0.8%

Structure (SMILES): C=CCc1ccc(OC(=O)/C=C/c2ccc(O)c(O)c2)c(OC)c1 [c27, 4-allyl-2-methoxyphenyl (E)-3-(3,4-dihydroxyphenyl)acrylate]
- reduction of intensity of peak 1 (λex/λem = 280 nm/340 nm) (tyrosinase [2]; Tyr and Trp residues): 21.47%
- reduction of intensity of peak 2 (λex/λem = 230 nm/335 nm) (tyrosinase [2]; polypeptide strand transition): 32.71%
- Random Coil (%) (tyrosinase [3]; [Tyrosinase]:[c27] 1:1): 28.23%
- α-Helix (%) (tyrosinase [3]; [Tyrosinase]:[c27] 1:1): 7.12%
- β-Sheet (%) (tyrosinase [3]; [Tyrosinase]:[c27] 1:1): 49.00%
- β-Turn (%) (tyrosinase [3]; [Tyrosinase]:[c27] 1:1): 17.63%
- Random Coil (%) (tyrosinase [3]; [Tyrosinase]:[c27] 1:2): 28.12%
- α-Helix (%) (tyrosinase [3]; [Tyrosinase]:[c27] 1:2): 9.56%
- β-Sheet (%) (tyrosinase [3]; [Tyrosinase]:[c27] 1:2): 49.23%
- β-Turn (%) (tyrosinase [3]; [Tyrosinase]:[c27] 1:2): 18.37%
- Random Coil (%) (tyrosinase [3]; [Tyrosinase]:[c27] 1:3): 27.94%
- α-Helix (%) (tyrosinase [3]; [Tyrosinase]:[c27] 1:3): 9.85%
- β-Sheet (%) (tyrosinase [3]; [Tyrosinase]:[c27] 1:3): 49.27%
- β-Turn (%) (tyrosinase [3]; [Tyrosinase]:[c27] 1:3): 18.55%
- number of binding sites (in words) (tyrosinase [4]): one
- quenching mechanism (tyrosinase [4]): static
- KSV (Stern–Volmer quenching constant) (tyrosinase [4]; 304 K): 47700 L/mol
- Kq (quenching rate constant) (tyrosinase [4]; 304 K): 4.77e+12 L/mol
- n (number of binding sites) (tyrosinase [4]; 304 K): 0.59
- KSV (Stern–Volmer quenching constant) (tyrosinase [4]; 307 K): 43200 L/mol
- Kq (quenching rate constant) (tyrosinase [4]; 307 K): 4.32e+12 L/mol
- n (number of binding sites) (tyrosinase [4]; 307 K): 0.86
- KSV (Stern–Volmer quenching constant) (tyrosinase [4]; 310 K): 42900 L/mol
- Kq (quenching rate constant) (tyrosinase [4]; 310 K): 4.29e+12 L/mol
- n (number of binding sites) (tyrosinase [4]; 310 K): 0.99
- inhibition type (tyrosinase [5]; Lineweaver–Burk plots): mixed-type
- reversibility of inhibition (tyrosinase [5]; ν versus [E] plots): reversible
- inhibition at 64 µM (tyrosinase [1]; [6]): 81.5%

Structure (SMILES): C=CCc1ccc(OC(=O)/C=C/c2ccc(Br)cc2)c(OC)c1 [c13, 4-allyl-2-methoxyphenyl (E)-3-(4-bromophenyl)acrylate]
- inhibition at 64 µM (tyrosinase [1]; [6]): 13 ± 1%

Structure (SMILES): C=CCc1ccc(OC(=O)/C=C/c2ccc3c(c2)OCO3)c(OC)c1 [c29, 4-allyl-2-methoxyphenyl (E)-3-(benzo[d][1,3]dioxol-5-yl)acrylate]
- inhibition at 64 µM (tyrosinase [1]; [6]): 4 ± 1%

Structure (SMILES): C=CCc1ccc(OC(=O)/C=C/c2ccccc2[N+](=O)[O-])c(OC)c1 [c16, 4-allyl-2-methoxyphenyl (E)-3-(2-nitrophenyl)acrylate]
- inhibition at 64 µM (tyrosinase [1]; [6]): 5 ± 0.1%

Structure (SMILES): C=CCc1ccc(OC(=O)/C=C/c2ccccc2C)c(OC)c1 [c2, 4-allyl-2-methoxyphenyl (E)-3-(o-tolyl)acrylate]
- inhibition at 64 µM (tyrosinase [1]; [6]): 12 ± 0.3%

Structure (SMILES): C=CCc1ccc(OC(=O)/C=C/c2ccc(N(C)C)cc2)c(OC)c1 [c25, 4-allyl-2-methoxyphenyl (E)-3-(4-(dimethylamino)phenyl)acrylate]
- inhibition at 64 µM (tyrosinase [1]; [6]): 26 ± 1%

Structure (SMILES): C=CCc1ccc(OC(=O)/C=C/c2cccc(Cl)c2)c(OC)c1 [c6, 4-allyl-2-methoxyphenyl (E)-3-(3-chlorophenyl)acrylate]
- inhibition at 64 µM (tyrosinase [1]; [6]): 17 ± 2%

Structure (SMILES): C=CCc1ccc(OC(=O)/C=C/c2cccc(Br)c2)c(OC)c1 [c12, 4-allyl-2-methoxyphenyl (E)-3-(3-bromophenyl)acrylate]
- inhibition at 64 µM (tyrosinase [1]; [6]): 3 ± 0.8%

Structure (SMILES): C=CCc1ccc(OC(=O)/C=C/c2ccc(F)cc2)c(OC)c1 [c10, 4-allyl-2-methoxyphenyl (E)-3-(4-fluorophenyl)acrylate]
- inhibition at 64 µM (tyrosinase [1]; [6]): 17 ± 1%

Structure (SMILES): C=CCc1ccc(OC(=O)/C=C/c2ccccc2C(F)(F)F)c(OC)c1 [c22, 4-allyl-2-methoxyphenyl (E)-3-(2-(trifluoromethyl)phenyl)acrylate]
- inhibition at 64 µM (tyrosinase [1]; [6]): 6 ± 0.5%

Structure (SMILES): C=CCc1ccc(OC(=O)/C=C/c2cccc(OC)c2)c(OC)c1 [c20, 4-allyl-2-methoxyphenyl (E)-3-(3-methoxyphenyl)acrylate]
- inhibition at 64 µM (tyrosinase [1]; [6]): 3 ± 0.1%

Structure (SMILES): C=CCc1ccc(OC(=O)/C=C/c2ccc(Cl)cc2)c(OC)c1 [c7, 4-allyl-2-methoxyphenyl (E)-3-(4-chlorophenyl)acrylate]
- inhibition at 64 µM (tyrosinase [1]): 24 ± 1%

Structure (SMILES): C=CCc1ccc(OC(=O)/C=C/c2ccccc2Br)c(OC)c1 [c11, 4-allyl-2-methoxyphenyl (E)-3-(2-bromophenyl)acrylate]
- inhibition at 64 µM (tyrosinase [1]; [6]): 10 ± 0.4%

Structure (SMILES): C=CCc1ccc(OC(=O)/C=C/c2cccc(C)c2)c(OC)c1 [c3, 4-allyl-2-methoxyphenyl (E)-3-(m-tolyl)acrylate]
- inhibition at 64 µM (tyrosinase [1]; [6]): 39 ± 3%

Structure (SMILES): C=CCc1ccc(OC(=O)/C=C/c2ccc(O)cc2)c(OC)c1 [c15, 4-allyl-2-methoxyphenyl (E)-3-(4-hydroxyphenyl)acrylate]
- inhibition at 64 µM (tyrosinase [1]; [6]): 76.1%

Structure (SMILES): C=CCc1ccc(OC(=O)/C=C/c2ccccc2Cl)c(OC)c1 [c5, 4-allyl-2-methoxyphenyl (E)-3-(2-chlorophenyl)acrylate]
- inhibition at 64 µM (tyrosinase [1]; [6]): 29 ± 3%

Structure (SMILES): C=CCc1ccc(OC(=O)/C=C/c2ccc(O)c(OC)c2)c(OC)c1 [c26, 4-allyl-2-methoxyphenyl (E)-3-(4-hydroxy-3-methoxyphenyl)acrylate]
- inhibition at 64 µM (tyrosinase [1]; [6]): 47 ± 1%

Structure (SMILES): C=CCc1ccc(OC(=O)/C=C/c2ccccc2F)c(OC)c1 [c8, 4-allyl-2-methoxyphenyl (E)-3-(2-fluorophenyl)acrylate]
- inhibition at 64 µM (tyrosinase [1]; [6]): 17 ± 3%

Structure (SMILES): C=CCc1ccc(OC(=O)/C=C/c2ccc(C)cc2)c(OC)c1 [c4, 4-allyl-2-methoxyphenyl (E)-3-(p-tolyl)acrylate]
- inhibition at 64 µM (tyrosinase [1]; [6]): 15 ± 1%

Structure (SMILES): C=CCc1ccc(OC(=O)/C=C/c2cccc(C(F)(F)F)c2)c(OC)c1 [c23, 4-allyl-2-methoxyphenyl (E)-3-(3-(trifluoromethyl)phenyl)acrylate]
- inhibition at 64 µM (tyrosinase [1]; [6]): 5 ± 0.2%

Structure (SMILES): C=CCc1ccc(OC(=O)/C=C/c2ccc(Cl)c(F)c2)c(OC)c1 [c28, 4-allyl-2-methoxyphenyl (E)-3-(4-chloro-3-fluorophenyl)acrylate]
- inhibition at 64 µM (tyrosinase [1]; [6]): 19 ± 0.2%

Structure (SMILES): C=CCc1ccc(OC(=O)/C=C/c2cccc(O)c2)c(OC)c1 [c14, 4-allyl-2-methoxyphenyl (E)-3-(3-hydroxyphenyl)acrylate]
- inhibition at 64 µM (tyrosinase [1]; [6]): 67.6%

Reference: PMC10460039 (Molecules, 2023)
